From the supplement of paper PMC10307832

What was measured:
Test in all cases: relative viability (nuclei count vs DMSO), 5 days (fraction); higher = more cells survive
XMD14-99 + Navitoclax = compound: CN1CCN(CC1)C2=CC(=C(C=C2)NC3=NC(=C(S3)C(=O)C4=C(C=CC=C4Cl)Cl)N)OC [XMD14-99] + CC1(C)CCC(c2ccc(Cl)cc2)=C(CN2CCN(c3ccc(C(=O)NS(=O)(=O)c4ccc(N[C@H](CCN5CCOCC5)CSc5ccccc5)c(S(=O)(=O)C(F)(F)F)c4)cc3)CC2)C1 [Navitoclax] (partner 0.5 µM)
In short: (§1)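 Lung cancer cell lines in 1536-well plates got either a single drug or a fixed anchor-drug dose together with five library-drug doses (not always all listed) in √10 steps, by pin tool, on the day after seeding. Nuclei were counted after 5 days, and relative viability is the treated-to-vehicle ratio of nuclei counts. Values are medians of duplicate plates.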

XMD14-99 + Foretinib = compound: CN1CCN(CC1)C2=CC(=C(C=C2)NC3=NC(=C(S3)C(=O)C4=C(C=CC=C4Cl)Cl)N)OC [XMD14-99] + COc1cc2c(Oc3ccc(NC(=O)C4(C(=O)Nc5ccc(F)cc5)CC4)cc3F)ccnc2cc1OCCCN1CCOCC1 [Foretinib] (partner 0.25 µM)
In short: as §1

AZD1208 = compound: N[C@@H]1CCCN(c2c(/C=C3\SC(=O)NC3=O)cccc2-c2ccccc2)C1 [AZD1208]
In short: (§2)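 Lung cancer cell lines received five library-drug doses (not always all listed) spaced by √10, pinned on vehicle-anchored 1536-well plates after an overnight stay at 37 °C. Five days later, with no medium change, nuclei were Hoechst-stained, imaged at 4× and counted with MetaXpress. Viability is treated-well nuclei relative to vehicle-well nuclei, as a median across plates. Passing plates had control CV below 25% and at least one doubling.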

XMD14-99 = compound: CN1CCN(CC1)C2=CC(=C(C=C2)NC3=NC(=C(S3)C(=O)C4=C(C=CC=C4Cl)Cl)N)OC [XMD14-99]
In short: as §2

Cell Line | relative viability (XMD14-99 + Navitoclax; first compound 0.08 µM) | relative viability (XMD14-99 + Navitoclax; first compound 0.8 µM) | relative viability (XMD14-99 + Navitoclax; first compound 2.53 µM) | relative viability (XMD14-99 + Navitoclax; first compound 8 µM) | relative viability (XMD14-99 + Foretinib; first compound 0.08 µM) | relative viability (XMD14-99 + Foretinib; first compound 0.8 µM) | relative viability (XMD14-99 + Foretinib; first compound 2.53 µM) | relative viability (XMD14-99 + Foretinib; first compound 8 µM) | relative viability (AZD1208; 0.08 µM) | relative viability (AZD1208; 0.253 µM) | relative viability (AZD1208; 0.8 µM) | relative viability (AZD1208; 2.53 µM) | relative viability (AZD1208; 8 µM) | relative viability (XMD14-99; 0.08 µM) | relative viability (XMD14-99; 0.8 µM) | relative viability (XMD14-99; 2.53 µM) | relative viability (XMD14-99; 8 µM)
NCI-H23 | 0.782 | 0.874 | 0.744 | 0.748 | 0.908 | 0.981 | 0.843 | 0.821 | 0.968 | 1.08 | 0.902 | 0.886 | 0.842 | 1.01 | 0.996 | 0.911 | 0.685
IA-LM | 0.732 | 0.56 | 0.449 | 0.295 | 1.05 | 0.964 | 0.978 | 0.458 | 0.951 | 0.983 | 0.855 | 0.875 | 0.989 | 0.947 | 0.86 | 0.758 | 0.472
SK-MES-1 | 1.26 | 1.18 | 1.05 | 0.821 | 1.01 | 0.927 | 0.971 | 0.745 | 0.979 | 1.01 | 0.964 | 0.943 | 0.866 | 1.02 | 0.994 | 0.976 | 0.664
NCI-H2170 | 0.574 | 0.594 | 0.644 | 0.603 | 0.978 | 1.02 | 1.02 | 0.921 | 0.99 | 0.994 | 0.945 | 0.964 | 0.64 | 0.97 | 1.01 | 0.995 | 0.925
NCI-H2087 | 0.964 | 0.897 | 0.632 | 0.463 | 1.05 | 0.86 | 0.746 | 0.569 | 0.956 | 1.18 | 0.821 | 1.01 | 1.01 | 0.957 | 0.968 | 0.818 | 0.483
NCI-H838 | 1.15 | 1.11 | 1.1 | 0.747 | 1.01 | 0.943 | 0.926 | 0.887 | 0.938 | 0.967 | 0.841 | 0.902 | 0.844 | 0.911 | 0.939 | 0.873 | 0.658
NCI-H460 | 1.06 | 1.02 | 1.03 | 0.767 | 1.03 | 1.03 | 1.01 | 0.808 | 0.997 | 1.1 | 0.962 | 0.998 | 1.03 | 1.02 | 0.965 | 0.954 | 0.841
LOU-NH91 | 0.662 | 0.758 | 0.685 | 0.613 | 0.919 | 0.962 | 0.916 | 0.802 | 1.02 | 0.889 | 0.954 | 0.953 | 0.892 | 1.06 | 0.922 | 0.898 | 0.829
NCI-H322M | 1.15 | 1.27 | 1.33 | 1.08 | 1.01 | 0.893 | 0.932 | 0.736 | 0.94 | 0.943 | 0.943 | 0.891 | 1.04 | 0.994 | 0.977 | 0.86 | 0.762
NCI-H520 | 0.992 | 1.1 | 1.12 | 1.01 | 0.711 | 0.712 | 0.662 | 0.501 | 0.938 | 1.17 | 0.943 | 0.908 | 0.754 | 0.903 | 0.96 | 0.932 | 0.818
NCI-H727 | 0.399 | 0.349 | 0.339 | 0.219 | 0.95 | 0.893 | 0.684 | 0.555 | 0.891 | 0.886 | 0.777 | 0.755 | 0.827 | 1.03 | 0.815 | 0.846 | 0.567
